The structures appear in SMILES notation.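 Tested at 5 concentrations; 48 h exposure; 96-well plates; endpoints linearly interpolated, else capped at highest concentration. GI50 is the concentration that inhibits growth by half.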 Activity calls are given as the source filed them. No stated cut-off is given here; in the data, active = GI50 up to about 1.1 µM and inactive = higher.

Common to all, as to experiment: NCI tumour cell line growth inhibition, 48 h
Assay [1] relates to KM-20L2.
The test system of assay [2] is HL-60.
For assay [3], the system named is NCI-H522.
Assay [4] relates to COLO 205.
The subject of assay [5] is SK-MEL-2.
Assay [6] concerns XF498.
In assay [7] the test system is CAKI-1.
Assay [8] deals with HCC 2998.
Assay [9] concerns IGROV-1.
Assay [10] relates to SR.
For assay [11], the system named is DMS-114.
For assay [12], the system named is A549.
The subject of assay [13] is M19-MEL.
Assay [14] relates to K562.
Assay [15] deals with KM12.
Assay [16] concerns NCI/ADR-RES.
Assay [17] deals with RPMI-8226.
For assay [18], the system named is 786-0.

On to `CC(C)=CCC/C(C)=C/C=C/C(C)=C/C1C[C@@]2(C(O)O1)[C@H](CCCO)/C(=C(/C)C=O)CC[C@]2(C)O` (some centres not stated), for which the GI50 in assay [1] is 15.3 µM (inactive); in [2] it was 11.1 µM (inactive); in [3] it was 19.5 µM (inactive); in [4], 1.08 µM (active); in assay [5], 18.6 µM (inactive); in assay [6] it was 18.3 µM (inactive). In addition, the GI50 in assay [7] was 11.6 µM (inactive); in assay [8], 15 µM (inactive); in [9] it was 22.3 µM (inactive); in [10], 14.6 µM (inactive); in assay [11] it was 13.3 µM (inactive); in assay [12], 7.8 µM (inactive). For the same molecule, the figures for the GI50 in assay [13] and in [14] were 16.2 µM (inactive) and 8.89 µM (inactive), respectively.
Regarding `O=C1CCC23CC(C=CC=C12)n1c(=O)n(-c2ccccc2)c(=O)n13` (configuration not stated), the GI50 was 31 µM (inactive) in assay [2]; > 100 µM (inactive) in assay [3]; > 100 µM (inactive) in assay [4]; > 100 µM (inactive) in [5]; > 100 µM (inactive) in [6]; > 50.6 µM (inactive) in [7]. The GI50 is > 100 µM (inactive) in [8]; > 100 µM (inactive) in [15]; > 100 µM (inactive) in [9]; 37.3 µM (inactive) in assay [11]; 38.5 µM (inactive) in [16]; > 63.8 µM (inactive) in [12]. Further, the results for the GI50 in assay [13], in assay [14] and in [17] were > 100 µM (inactive), 39.8 µM (inactive) and > 100 µM (inactive), respectively.
As to `Cc1ccc(NC(=O)OCC(COc2ccc(Cl)cc2)OC(=O)Nc2ccc(C)cc2)cc1` (configuration not stated), the GI50 in assay [1] is 36.7 µM (inactive); in assay [2], 0.938 µM (active); in assay [3], 29.8 µM (inactive); in assay [4], 39.6 µM (inactive); in assay [5], 15 µM (inactive); in assay [6], 26.4 µM (inactive). In addition, the GI50 in [7] was 15.7 µM (inactive); in assay [8] it was 39 µM (inactive); in assay [15], 23 µM (inactive); in assay [9], 9.79 µM (inactive); in [10] it was > 100 µM (inactive); in [11], 17.3 µM (inactive). Besides, the GI50 is 13.7 µM (inactive) in [12], 22.4 µM (inactive) in assay [13], 9.27 µM (inactive) in [14] and 9.77 µM (inactive) in assay [17].
In the case of `N=S(=O)(c1ccccc1)c1ccccc1[N+](=O)[O-]` (configuration not stated), the GI50 in [1] is > 100 µM (inactive); in assay [2], > 100 µM (inactive); in assay [3] it was > 100 µM (inactive); in [4], > 100 µM (inactive); in [5] it was 68.5 µM (inactive); in assay [6], > 100 µM (inactive). The GI50 in assay [18], in assay [7], in [8], in [15], in assay [9] and in assay [10] was > 100 µM (inactive) each time. For the same molecule, the GI50 in assay [12], in [13], in assay [14] and in assay [17] was > 100 µM (inactive) each time.
On to `CCCCNC(=O)N/C=C1\C(=O)Oc2ccccc2C1=O`, for which the GI50 was > 100 µM (inactive) in assay [1]; 22.1 µM (inactive) in [2]; > 100 µM (inactive) in assay [4]; 20.1 µM (inactive) in assay [5]; 14.1 µM (inactive) in assay [6]; > 100 µM (inactive) in assay [8]. For the same molecule, the GI50 was 37.1 µM (inactive) in assay [9]; 57.5 µM (inactive) in assay [10]; 28.3 µM (inactive) in [11]; 80.9 µM (inactive) in [12]; 54.5 µM (inactive) in assay [13]; 55.7 µM (inactive) in assay [17].
Turning to `c1cncc(O[Si](Oc2cccnc2)(Oc2cccnc2)Oc2cccnc2)c1`, the GI50 in [4], in assay [5], in [6], in assay [7], in assay [8] and in assay [15] was > 100 µM (inactive) in each case. In addition, the GI50 in [9], in assay [10], in assay [11], in assay [12] and in assay [13] was > 100 µM (inactive) throughout.
Turning to `C#Cc1cccc(N2C(=O)c3c(c(-c4ccccc4)c(-c4ccc(Cc5ccc(-c6c(-c7ccccc7)c7c(c(-c8ccccc8)c6-c6ccccc6)C(=O)N(c6cccc(C#C)c6)C7=O)cc5)cc4)c(-c4ccccc4)c3-c3ccccc3)C2=O)c1`, the GI50 was 16.2 µM (inactive) in [1]; 22.3 µM (inactive) in assay [2]; > 100 µM (inactive) in assay [3]; 27 µM (inactive) in [4]; 57.9 µM (inactive) in assay [5]; 22.8 µM (inactive) in assay [6]. In addition, the GI50 in assay [18] is 30.2 µM (inactive); in [8], 44.7 µM (inactive); in [15] it was 25.6 µM (inactive); in [9], 12.6 µM (inactive); in assay [11], 20.5 µM (inactive); in assay [12], 24.4 µM (inactive). The GI50 in [13] was 23.1 µM (inactive); in [14], 16.9 µM (inactive); in assay [17] it was 24.9 µM (inactive).
As to `O=C(CC1(O)C(=O)Nc2c(Cl)cc(Cl)cc21)c1ccc([N+](=O)[O-])cc1` (configuration not stated), the GI50 in assay [1] was > 78 µM (inactive); in assay [2] it was 7.89 µM (inactive); in [3] it was 19.4 µM (inactive); in assay [4], > 58.5 µM (inactive); in [5] it was > 56.4 µM (inactive); in [6] it was 56.5 µM (inactive). In addition, the GI50 in assay [18] was 85.3 µM (inactive); in assay [7], > 53.8 µM (inactive); in [8] it was 38 µM (inactive); in assay [15], > 54.8 µM (inactive); in assay [9], > 52.2 µM (inactive); in [10] it was > 51.3 µM (inactive). Also, the GI50 is 23.8 µM (inactive) in assay [11]; > 79.8 µM (inactive) in assay [12]; 10.3 µM (inactive) in assay [13]; 43.4 µM (inactive) in assay [14]; 26.9 µM (inactive) in [17].
`N#C[C@H](OC1OC(COC2OC(CO)C(O)C(O)C2O)C(O)C(O)C1O)c1ccccc1` (some centres not stated): the GI50 is > 250 µM (inactive) in assay [1]; 158 µM (inactive) in [2]; > 200 µM (inactive) in assay [3]; > 250 µM (inactive) in [4]; > 250 µM (inactive) in assay [5]; 23.4 µM (inactive) in [6]. The GI50 in assay [7], in [8], in [15], in [9], in assay [11] and in [16] was > 250 µM (inactive) throughout. Also, the GI50 in assay [12], in assay [13], in assay [14] and in [17] was > 250 µM (inactive) each time.

The values are drawn from ChEMBL document CHEMBL1201862, “PubChem BioAssay data set” (2004).
